Experimental data: ChEMBL document CHEMBL3397006, “Synthesis and evaluation of the diarylthiourea analogs as novel anti-cancer agents” (Bioorg Med Chem Lett, 2015)
Calls of active or inactive are those of the source. The calls are words filed in the database; no cut-off is given here.

Legend:
MCF7 [1] = assay: Cytotoxicity against human MCF7 cells assessed as reduction in cell viability after 48 hrs by MTT assay; format: functional; settings: MCF7, 48 h
LNCaP [2] = assay: Cytotoxicity against human LNCAP cells assessed as reduction in cell viability after 48 hrs by MTT assay; format: functional
DU-145 [3] = assay: Cytotoxicity against human DU145 cells assessed as reduction in cell viability after 48 hrs by MTT assay; format: functional; settings: DU-145, 48 h
[4] = Cytotoxicity against human PC3 cells assessed as reduction in cell viability after 48 hrs by MTT assay; format: functional; settings: PC-3, 48 h
T47D [5] = assay: Cytotoxicity against human T47D cells assessed as reduction in cell viability after 48 hrs by MTT assay; format: functional
MDA-MB-453 [6] = assay: Cytotoxicity against human MDA-MB-453 cells assessed as reduction in cell viability after 48 hrs by MTT assay; format: functional; settings: MDA-MB-453, 48 h
MCF7 [7] = assay: Growth inhibition of human MCF7 cells at 0.5 to 20 uM after 4 days by MTT assay; format: functional, cell-based
T47D [8] = assay: Growth inhibition of human T47D cells at 0.5 to 20 uM after 4 days by MTT assay; format: functional, cell-based
LNCaP [9] = assay: Selectivity index, ratio of GI50 for human PC3 cells to GI50 for human LNCAP cells; format: functional
LNCaP [10] = assay: Selectivity index, ratio of GI50 for human DU145 cells to GI50 for human LNCAP cells; format: functional
LNCaP [11] = assay: Growth inhibition of human LNCAP cells at 0.5 to 20 uM after 4 days by […] assay
MDA-MB-453 [12] = assay: Growth inhibition of human MDA-MB-453 cells at 0.5 to 20 uM after 4 days by MTT assay; format: functional, cell-based
Toxicity in dog = settings: in vivo
[13] = Systemic bioavailability in rat; format: ADME, organism-based; settings: in vivo
DU-145 [14] = assay: Growth inhibition of human DU145 cells; format: functional
MCF7 [15] = assay: Growth inhibition of human MCF7 cells; format: functional
MDA-MB-453 [16] = assay: Growth inhibition of human MDA-MB-453 cells; format: functional
T47D [17] = assay: Growth inhibition of human T47D cells; format: functional
[18] = Growth inhibition of human PC3 cells; format: functional; settings: PC-3
[19] = Protein binding in plasma (unknown origin); format: ADME, cell-free; settings: read-out: PPB (converted)

Row | bioavailability [13] | GI50 (DU-145 [14]) | GI50 (MCF7 [15]) | GI50 (MDA-MB-453 [16]) | GI50 (T47D [17]) | fraction unbound [19] | Compound | GI50 (MCF7 [1]) | GI50 (LNCaP [2]) | GI50 (DU-145 [3]) | GI50 [4] | GI50 (T47D [5]) | GI50 (MDA-MB-453 [6]) | growth inhibition (GI) (MCF7 [7]) | growth inhibition (GI) (T47D [8]) | Selectivity Index (LNCaP [9]) | Selectivity Index (LNCaP [10]) | growth inhibition (GI) (LNCaP [11]) | growth inhibition (GI) (MDA-MB-453 [12]) | NOAEL (Toxicity in dog) | GI50 [18]
1 | – | – | – | – | – | – | Cc1ccc(NC(=S)Nc2ccc([N+](=O)[O-])cc2)cc1C | 17 µM | 10.6 µM | 35.1 µM | 26.8 µM | 8.14 µM | 13.5 µM | – | – | – | – | – | – | – | –
2 | – | – | – | – | – | – | O=[N+]([O-])c1ccc(NC(=S)Nc2ccc3sccc3c2)cc1 | > 50 µM | 23.5 µM | > 50 µM | > 50 µM | 15.3 µM | > 50 µM | – | – | – | – | – | – | – | –
3 | – | – | – | – | – | – | O=[N+]([O-])c1ccc(NC(=S)Nc2cc3c4ccccc4ccc3c3ccccc23)cc1 | 3.16 µM | 3.54 µM | 21.8 µM | 20 µM | 2.53 µM | 4.77 µM | Active | Active | 6 | 6 | Active | Active | – | –
4 | < 1% | 4.9 µM | 4.5 µM | 5 µM | 4.8 µM | 0.007 | CC1(C)CC(C)(C)c2cc(NC(=S)Nc3ccc([N+](=O)[O-])cc3)ccc2S1 [SHETA-2] | 4.13 µM | 2.25 µM | 3.47 µM | 4.8 µM | 3.99 µM | 3.27 µM | – | – | – | – | – | – | > 1500 mg/kg | 5 µM
5 | – | – | – | – | – | – | O=c1oc2ccc(NC(=S)Nc3ccc([N+](=O)[O-])cc3)cc2c2ccccc12 | 13.1 µM | 12.8 µM | 24.1 µM | 22.6 µM | 8.68 µM | 27.6 µM | – | – | – | – | – | – | – | –
6 | – | – | – | – | – | – | O=[N+]([O-])c1ccc(NC(=S)Nc2ccc3c(c2)Cc2cc(Br)ccc2-3)cc1 | 7.81 µM | 11.3 µM | 17.5 µM | 16.5 µM | 3.96 µM | 6.2 µM | – | – | – | – | – | – | – | –
7 | – | – | – | – | – | – | O=[N+]([O-])c1ccc(NC(=S)Nc2cc3ccccc3c3ccccc23)cc1 | 13.3 µM | 7.29 µM | 6.11 µM | 19.3 µM | 11.6 µM | 14.5 µM | – | – | – | – | – | – | – | –
8 | – | – | – | – | – | – | Cc1cc(=O)oc2cc(NC(=S)Nc3ccc([N+](=O)[O-])cc3)ccc12 | 9.89 µM | > 50 µM | > 50 µM | > 50 µM | > 50 µM | > 50 µM | – | – | – | – | – | – | – | –
9 | – | – | – | – | – | – | CC(NC(=S)Nc1ccc([N+](=O)[O-])cc1)c1cccc2ccccc12 (stereo not drawn) | 6.21 µM | 6.05 µM | 13.7 µM | 13.9 µM | 2.94 µM | 6.27 µM | – | – | 2 | 2 | – | – | – | –
10 | – | – | – | – | – | – | CC1=C(/C=C/C(C)=C/C=C/C(C)=C/C(=O)O)C(C)(C)CCC1 [TRETINOIN] | 12.4 µM | 10.3 µM | 11.6 µM | 12.6 µM | 0.82 µM | 9.51 µM | – | – | – | – | – | – | – | –
11 | – | – | – | – | – | – | CCn1c2ccccc2c2cc(NC(=S)Nc3ccc([N+](=O)[O-])cc3)ccc21 | 12.8 µM | 5.86 µM | 5.87 µM | 19.6 µM | 9.44 µM | 6.88 µM | – | – | – | – | – | – | – | –
12 | – | – | – | – | – | – | Cc1cc2cc(NC(=S)Nc3ccc([N+](=O)[O-])cc3)ccc2[nH]1 | > 50 µM | 40.5 µM | > 50 µM | > 50 µM | 21.6 µM | > 50 µM | – | – | – | – | – | – | – | –
